Source: ChEMBL document CHEMBL4138175, “Newly designed organotin(IV) carboxylates with peptide linkage: Synthesis, structural elucidation, physicochemical characterizations and pharmacological investigations” (Eur J Med Chem, 2018)
The source made the active and inactive calls. The calls are words filed in the database; no cut-off is given here.

Tests used:
Leishmania major [1] = test: Antileishmanial activity against Leishmania major promastigotes at 1 uM after 72 hrs by MTT assay relative to control; assay type: functional
Escherichia coli [2] = test: Antibacterial activity against Escherichia coli assessed as zone of inhibition after 24 to 48 hrs by well diffusion method; assay type: functional
Pseudomonas aeruginosa [3] = test: Antibacterial activity against Pseudomonas aeruginosa assessed as zone of inhibition after 24 to 48 hrs by well diffusion method; assay type: functional
Escherichia coli [4] = test: Antibacterial activity against Escherichia coli assessed as zone of inhibition by measuring activity index after 24 to 48 hrs by well diffusion method relative to penicillin G; assay type: functional, organism-based
Staphylococcus aureus [5] = test: Antibacterial activity against Staphylococcus aureus assessed as zone of inhibition after 24 to 48 hrs by well diffusion method; assay type: functional
[6] = test system: Staphylococcus epidermidis; test: Antibacterial activity against Staphylococcus epidermidis assessed as zone of inhibition by measuring activity index after 24 to 48 hrs by well diffusion method relative to amoxicillin; assay type: functional, organism-based
Streptococcus pyogenes = test: Antibacterial activity against Streptococcus pyogenes assessed as zone of inhibition after 24 to 48 hrs by well diffusion method; assay type: functional
Serratia marcescens [7] = test: Antibacterial activity against Serratia marcescens assessed as zone of inhibition after 24 to 48 hrs by well diffusion method; assay type: functional
NCI-H157 [8] = test: Cytotoxicity against human NCI-H157 cells at 100 uM after 48 hrs by sulforhodamine B assay; assay type: functional
DNA [9] = test: Binding affinity to single-stranded DNA (unknown origin) after 10 mins by UV-visible spectrometric method; assay type: nucleic-acid assay
Klebsiella pneumoniae [10] = test: Antibacterial activity against Klebsiella pneumoniae assessed as zone of inhibition by measuring activity index after 24 to 48 hrs by well diffusion method relative to ampicillin; assay type: functional, organism-based
Serratia marcescens [11] = test: Antibacterial activity against Serratia marcescens assessed as zone of inhibition by measuring activity index after 24 to 48 hrs by well diffusion method relative to penicillin G; assay type: functional
Pseudomonas aeruginosa [12] = test: Antibacterial activity against Pseudomonas aeruginosa assessed as zone of inhibition by measuring activity index after 24 to 48 hrs by well diffusion method relative to ampicillin; assay type: functional, organism-based
NCI-H157 [13] = test: Cytotoxicity against human NCI-H157 cells after 48 hrs by sulforhodamine B assay; assay type: functional, cell-based
Serratia marcescens [14] = test: Antibacterial activity against Serratia marcescens assessed as zone of inhibition by measuring activity index after 24 to 48 hrs by well diffusion method relative to ampicillin; assay type: functional
Klebsiella pneumoniae [15] = test: Antibacterial activity against Klebsiella pneumoniae assessed as zone of inhibition by measuring activity index after 24 to 48 hrs by well diffusion method relative to amoxicillin; assay type: functional, organism-based
DNA [16] = test: Binding affinity to single-stranded DNA (unknown origin) assessed as red shift up to 72 uM after 10 mins by UV-visible spectrometric method; assay type: nucleic-acid assay
Leishmania major [17] = test: Antileishmanial activity against Leishmania major promastigotes at 0.1 uM after 72 hrs by MTT assay relative to control; assay type: functional
DNA [18] = test: Binding affinity to single-stranded DNA (unknown origin) assessed as DNA intercalation by measuring increase in relative viscosity of DNA-compound complex by viscometry; assay type: nucleic-acid assay
[19] = test system: Staphylococcus epidermidis; test: Antibacterial activity against Staphylococcus epidermidis assessed as zone of inhibition after 24 to 48 hrs by well diffusion method; assay type: functional
Escherichia coli [20] = test: Antibacterial activity against Escherichia coli assessed as zone of inhibition by measuring activity index after 24 to 48 hrs by well diffusion method relative to amoxicillin; assay type: functional, organism-based
Klebsiella pneumoniae [21] = test: Antibacterial activity against Klebsiella pneumoniae assessed as zone of inhibition by measuring activity index after 24 to 48 hrs by well diffusion method relative to tetracycline; assay type: functional, organism-based
NCI-H157 [22] = test: Cytotoxicity against human NCI-H157 cells at 10 uM after 48 hrs by sulforhodamine B assay; assay type: functional
NCI-H157 [23] = test: Cytotoxicity against human NCI-H157 cells at 0.1 uM after 48 hrs by sulforhodamine B assay; assay type: functional
Escherichia coli [24] = test: Antibacterial activity against Escherichia coli assessed as zone of inhibition by measuring activity index after 24 to 48 hrs by well diffusion method relative to ampicillin; assay type: functional, organism-based
Klebsiella pneumoniae [25] = test: Antibacterial activity against Klebsiella pneumoniae assessed as zone of inhibition after 24 to 48 hrs by well diffusion method; assay type: functional
NCI-H157 [26] = test: Cytotoxicity against human NCI-H157 cells at 1 uM after 48 hrs by sulforhodamine B assay; assay type: functional
Leishmania major [27] = test: Antileishmanial activity against Leishmania major promastigotes at 100 uM after 72 hrs by MTT assay relative to control; assay type: functional
Leishmania major [28] = test: Antileishmanial activity against Leishmania major promastigotes at 10 uM after 72 hrs by MTT assay relative to control; assay type: functional
Serratia marcescens [29] = test: Antibacterial activity against Serratia marcescens assessed as zone of inhibition by measuring activity index after 24 to 48 hrs by well diffusion method relative to amoxicillin; assay type: functional
[30] = test system: Staphylococcus epidermidis; test: Antibacterial activity against Staphylococcus epidermidis assessed as zone of inhibition by measuring activity index after 24 to 48 hrs by well diffusion method relative to tetracycline; assay type: functional, organism-based
Pseudomonas aeruginosa [31] = test: Antibacterial activity against Pseudomonas aeruginosa assessed as zone of inhibition by measuring activity index after 24 to 48 hrs by well diffusion method relative to tetracycline; assay type: functional, organism-based
[32] = test system: Staphylococcus epidermidis; test: Antibacterial activity against Staphylococcus epidermidis assessed as zone of inhibition by measuring activity index after 24 to 48 hrs by well diffusion method relative to ampicillin; assay type: functional, organism-based
Staphylococcus aureus [33] = test: Antibacterial activity against Staphylococcus aureus assessed as zone of inhibition by measuring activity index after 24 to 48 hrs by well diffusion method relative to penicillin G; assay type: functional, organism-based
Staphylococcus aureus [34] = test: Antibacterial activity against Staphylococcus aureus assessed as zone of inhibition by measuring activity index after 24 to 48 hrs by well diffusion method relative to amoxicillin; assay type: functional, organism-based
Staphylococcus aureus [35] = test: Antibacterial activity against Staphylococcus aureus assessed as zone of inhibition by measuring activity index after 24 to 48 hrs by well diffusion method relative to ampicillin; assay type: functional, organism-based
Staphylococcus aureus [36] = test: Antibacterial activity against Staphylococcus aureus assessed as zone of inhibition by measuring activity index after 24 to 48 hrs by well diffusion method relative to tetracycline; assay type: functional, organism-based
Serratia marcescens [37] = test: Antibacterial activity against Serratia marcescens assessed as zone of inhibition by measuring activity index after 24 to 48 hrs by well diffusion method relative to tetracycline; assay type: functional, organism-based
Klebsiella pneumoniae [38] = test: Antibacterial activity against Klebsiella pneumoniae assessed as zone of inhibition by measuring activity index after 24 to 48 hrs by well diffusion method relative to penicillin G; assay type: functional, organism-based
Pseudomonas aeruginosa [39] = test: Antibacterial activity against Pseudomonas aeruginosa assessed as zone of inhibition by measuring activity index after 24 to 48 hrs by well diffusion method relative to amoxicillin; assay type: functional, organism-based
Pseudomonas aeruginosa [40] = test: Antibacterial activity against Pseudomonas aeruginosa assessed as zone of inhibition by measuring activity index after 24 to 48 hrs by well diffusion method relative to penicillin G; assay type: functional, organism-based
[41] = test system: Staphylococcus epidermidis; test: Antibacterial activity against Staphylococcus epidermidis assessed as zone of inhibition by measuring activity index after 24 to 48 hrs by well diffusion method relative to penicillin G; assay type: functional, organism-based

Substance | Activity (Leishmania major [1]) | inhibition zone (IZ) (Escherichia coli [2]) | inhibition zone (IZ) (Pseudomonas aeruginosa [3]) | Activity_index (Escherichia coli [4]) | inhibition zone (IZ) (Staphylococcus aureus [5]) | inhibition zone (IZ) (Streptococcus pyogenes) | inhibition zone (IZ) (Serratia marcescens [7]) | Activity (NCI-H157 [8]) | Activity (NCI-H157 [13]) | Activity (Leishmania major [17]) | inhibition zone (IZ) [19] | Activity_index (Escherichia coli [20]) | Activity (NCI-H157 [22]) | Activity (NCI-H157 [23]) | Activity_index (Escherichia coli [24]) | inhibition zone (IZ) (Klebsiella pneumoniae [25]) | Activity (NCI-H157 [26]) | Activity (Leishmania major [27]) | Activity (Leishmania major [28]) | further results
Triethylstannyl 2-(4-methoxy-2-nitrophenylcarbamoyl)benzoate | 49.4% | inactive | inactive | inactive | 19.3 mm | 15.7 mm | 15.3 mm | 62.4% | Dose-dependent effect | 45.3% | 11 mm | inactive | 57.4% | 39.8% | inactive | 27.7 mm | 43.7% | 56.4% | 53.2% | Activity index [6]: 5.5; K (DNA [9]): 9.3 ×10³ /M; Activity index (Klebsiella pneumoniae [10]): 4.61; Activity index (Serratia marcescens [11]): 1.92; Activity_index (Pseudomonas aeruginosa [12]): inactive; Activity index (Serratia marcescens [14]): 1.92; Activity index (Klebsiella pneumoniae [15]): 4.61; Activity (DNA [16]): < 3 nm; Activity (DNA [18]): Active; Activity index (Klebsiella pneumoniae [21]): 1.98; Activity index (Serratia marcescens [29]): 2.55; Activity index [30]: 1.1
Diphenylstannanediyl bis 2-(4-methoxy-2-nitrophenylcarbamoyl)benzoate | 60.4% | inactive | 10 mm | inactive | inactive | 7.33 mm | inactive | 73.9% | Dose-dependent effect | 56.6% | inactive | inactive | 67.1% | 55.5% | inactive | inactive | 59.6% | 71.2% | 65.5% | Activity index (Pseudomonas aeruginosa [31]): 1.67; Activity_index [32]: inactive; Activity_index (Staphylococcus aureus [33]): inactive; Activity_index (Staphylococcus aureus [34]): inactive; Activity_index (Staphylococcus aureus [35]): inactive; Activity_index (Staphylococcus aureus [36]): inactive; Activity_index (Serratia marcescens [37]): inactive; Activity_index (Klebsiella pneumoniae [38]): inactive; Activity index (Pseudomonas aeruginosa [39]): 1.67; Activity index (Pseudomonas aeruginosa [40]): 1.67; Activity_index [41]: inactive
